The values that follow come from patent US9637451B2, “Indole compound” (ASTELLAS PHARMA INC., priority 2014, dated 2017).

Bounds are passed on as bounds.

For one series, the system named is SD female rats. Nature of the series: Effect of test compound on urethral pressure in anesthetized rats. The series is classed as in vivo, rat. An excerpt:
SD female rats were anesthetized with urethane and subjected to laparotomy. Then, the bladder apex was incised and a catheter was inserted from the bladder apex. Further, the catheter tip was ligated and fixed to be located in the proximal urethra portion. The catheter was connected to a pressure transducer and an infusion pump. Further, a catheter for administrating the compound was fitted into the femoral vein. Physiological saline was continuously infused into the urethra and the perfusion pressure in the urethra was measured. After the urethral pressure was stabilized, the test compound that had been dissolved in physiological saline, or physiological saline including 5% dimethylacetamide and 0.5% Cremophor was administered intravenously at 0.01 mg/kg or 0.1 mg/kg, and a change in urethral pressures was measured.
Further, the results of administering an active metabolite of midodrine (ST-1059: purchased from CHEMIZON) (J. Urology, 118, 980-982 (1977)) which is an α1 adrenoceptor agonist and is confirmed to have a clinical effect on stress urinary incontinence at doses, 0.01 mg/kg and, 0.1 mg/kg in rats, presumed to correspond to the clinical doses are referenced and shown in the Tables below.
The increment value in the urethral pressures of ramelteon and the Example compounds of the present invention at the time of administration are shown in Table 3. Ex represents Example No. of the test compound and N.T represents Not Tested.

A short description of series [1]: CSF-to-plasma unbound concentration ratio in rat after intravenous administration. The series is classed as in vivo. How it is done:
A test compound (100 μg/mL, 50% acetonitrile solution) at 1% (v/v) with respect to the amount of the plasma was added to rat plasma, and dispensed to a sample for a supernatant and a sample for the plasma. The sample for a supernatant was ultracentrifuged at 436,000×g and 37° C. for 140 minutes, and the sample for the plasma was incubated at 37° C. for 140 minutes.
After 140 minutes, the sample for a supernatant after the ultracentrifugation and the sample for the plasma were taken, and mixed with the blank plasma or the blank supernatant, respectively. Acetonitrile including an internal standard material was added to each of the samples with the removal of protein, and after the centrifugation at 2150×g and 4° C. for 10 minutes the supernatant was injected into LC-MS/MS.
The unbound fraction in the plasma was calculated by the following equation.
To the plasma of a rat was added a test compound (0.2 mM, 50% acetonitrile solution) in an amount corresponding to 1% (v/v) of the plasma amount, and 200 μL of obtained plasma sample was filled into a plasma chamber of a RED device insert. A buffer chamber was filled with 350 μL of PBS, followed by performing equilibrium dialysis by stirring in a CO2 incubator at 37° C. for 16 hours. The sample after the completion of the equilibrium dialysis was recovered and the volume of the plasma sample was measured. To the plasma sample after the completion of the equilibrium dialysis were added PBS, a 20 mM ammonium formate buffer, and acetonitrile including an internal standard material. Similarly, to the PBS sample after the completion of the equilibrium dialysis was added a blank plasma, a 20 mM ammonium formate buffer, and acetonitrile including an internal standard material. This sample was left to stand at 4° C. for 30 minutes and then centrifuged 1500×g for 10 minutes, and the supernatant was measured by LC-MS/MS. The unbound fraction in the plasma was calculated by the following equation. fp=Cf/{(Cp−Cf)(V/V0)+Cf}
At 15 minutes after intravenously administration of the test compound to the rats, the plasma and CSF were collected. A 50% acetonitrile solution and an acetonitrile including internal standard material were added to the collected plasma or CSF. After centrifuging this sample at 4° C. and 2150×g for 10 minutes, the supernatant was measured by LC-MS/MS, and the total concentration of the test compound in the plasma (Cplasma,t) and the concentration of the test compound in CSF (CCSF) were obtained. The unbound concentration in the plasma (Cplasma,u) of the test compound and the CSF-to-plasma unbound concentration ratio (Kp,uu,CSF) of the test compound was calculated by the following equation.
The Kp,uu,CSF values and the Kp,brain values of ramelteon and some Example compounds of the present invention are shown in Table 4. Ex represents Example No. of the test compound. Unless otherwise specified, the Kp,uu,CSF was calculated using the fp values determined by an ultracentrifugation method. Further, N.T. represents Not Tested.
(Ramelteon represents the values of Kp,uu,CSF after 10 minutes after the intravenous administration. Further, the Kp,uu,CSF of Examples 37 and 38 was calculated using the fp values determined by an equilibrium dialysis method. In addition, N.D. denotes the concentration of the test compound in CSF that is no higher than the detection limit.)

Another series has as its system rat. Nature of the series: Measurement test of electroencephalogram in rat (sleep-awake cycle). The series is classed as in vivo. The source says: After the completion of a quarantine period, the animals showing no abnormal health condition were subjected to an electroencephalogram electrode chronic implantation surgery with reference to brain atlas of Pellegrino (Plenum Press, New York (1979)), or the like. Under anesthesia with pentobarbital sodium, the rat was calibrated in a brain stereotaxic apparatus. In the frontal cortex, a monopolar silver ball electrode having a diameter of the tip of about 1 mm was placed on a hard film of the brain. Into the hippocampus, a laminated bipolar electrodes made of stainless steel was stuck. The reference electrode was screwed around the olfactory brain. Further, as for the electromyogram measurement, the lead wire was implanted in the both electrodes about 1 cm between the electrodes in the neck portion. The other end was exposed to the head portion subcutaneously. The electrodes and the lead wires were subjected to soldering with connector sockets and fixed to the skull with a dental resin or the like.
The rats were accommodated in a measurement cage under rat feeding and water supply on the morning of the day of administration, and accustomed to the measurement environment. After measuring the weight using an electronic scale balance, a lead wire and a connector socket were connected 30 minutes or more before the start of the electroencephalogram measurement, and the rat was accustomed in the measurement state under no anesthesia and no custody. The test compounds were intraperitoneally or orally administered to the rats and the electroencephalogram was measured continuously until 6 hours after the administration.
Ramelteon: solvent, 0.1 mg/kg, 1 mg/kg, and 10 mg/kg; intraperitoneal administration
Example 1: solvent, 3 mg/kg, 30 mg/kg, and 300 mg/kg; oral administration
Example 6: solvent, 10 mg/kg, 30 mg/kg, and 300 mg/kg; oral administration
The electrical signals of electroencephalogram and of electromyogram were applied to an electroencephalogram system and an electroencephalogram frequency analysis program of a personal computer was used to acquire the wave form of the electroencephalogram from the electroencephalograph system. In addition, the image signals of the electroencephalogram waveform were applied to an EEG video system and recorded on DVD-R using a DVD recorder. The behavior observation was carried out through a video camera at the same time as the electroencephalogram measurement and the images were also recorded on DVD-R using DVD recorder.
The presence or absence of abnormality in the electroencephalogram waveform in up to 6 hours from immediately after the administration, to each animal, respectively, was observed.
The analysis of a sleep-awake cycle was carried out using a sleep stage display-supporting program (MTS50061B, Japan Santec Corporation) based on the electroencephalogram waveforms acquired with an electroencephalogram frequency analysis program. Using the index of electroencephalogram, electromyogram, and behavior, the sleep steps were classified into an awake phase, a rest phase, a slow wave light sleep (S.W.L.S.) phase, a slow wave deep sleep (S.W.D.S.) phase, and a fast wave sleep (F.W.S., REM sleep) phase. Further, the rest phase, the slow wave light sleep phase, and the slow wave deep sleep phase were summed to determine a slow wave sleep (S.W.S., Non-REM sleep) phase. […] As the assessment criteria in the respective sleep steps, the criteria described in Japanese Pharmacological Journal 84, 25-89 (1984) were used.

The subject of series [2] is isolated urethra in a rat. The note with it: Patent Document 5; cited from earlier work.
Another series addresses T1, human MT1 receptor (Homo sapiens, UniProt P48039).
T1 construct: expressed in transfected cells
As to the kind of experiment: Activation of human MT1 receptor in receptor-expressing cells, intracellular Ca2+ by FLIPR. The class given is cell-based.

A further series concerns the target T2, human MT2 receptor (Homo sapiens, UniProt P49286).
T2 construct: expressed in transfected cells
T2 sequence (P49286 1-362): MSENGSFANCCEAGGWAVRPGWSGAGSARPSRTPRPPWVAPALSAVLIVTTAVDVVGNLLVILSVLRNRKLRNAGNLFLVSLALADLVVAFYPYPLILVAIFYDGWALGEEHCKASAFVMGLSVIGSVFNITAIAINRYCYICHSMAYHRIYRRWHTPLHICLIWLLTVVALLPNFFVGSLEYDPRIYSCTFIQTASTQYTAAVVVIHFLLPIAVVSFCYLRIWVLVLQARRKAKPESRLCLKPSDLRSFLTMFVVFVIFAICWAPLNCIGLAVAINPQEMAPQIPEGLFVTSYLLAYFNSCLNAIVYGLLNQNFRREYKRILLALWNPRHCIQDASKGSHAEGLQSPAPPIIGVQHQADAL
Nature of the series: Activation of human MT2 receptor in receptor-expressing cells, intracellular Ca2+ by FLIPR. The class given is cell-based.

Where [3] appears, read: maximum reaction by ramelteon taken as 100%.
The mark [4] stands for this setting: oral, any of the doses 3, 30 and 300 mg/kg.

T1 sequence (P48039 whole entry): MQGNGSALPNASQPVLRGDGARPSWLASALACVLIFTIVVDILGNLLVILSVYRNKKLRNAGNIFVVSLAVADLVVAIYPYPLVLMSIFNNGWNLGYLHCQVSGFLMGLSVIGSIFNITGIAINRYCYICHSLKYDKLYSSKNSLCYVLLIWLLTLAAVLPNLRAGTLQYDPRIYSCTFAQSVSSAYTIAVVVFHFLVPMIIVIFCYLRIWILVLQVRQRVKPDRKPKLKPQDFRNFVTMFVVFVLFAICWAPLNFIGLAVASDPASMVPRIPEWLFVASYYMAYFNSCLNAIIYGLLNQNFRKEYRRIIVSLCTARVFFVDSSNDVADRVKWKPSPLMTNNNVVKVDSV

As for `CCC(=O)NCC[C@@H]1CCc2ccc3c(c21)CCO3` [Ramelteon, ramelteon, reference compound], in the series with SD female rats (intravenous), the “Increment value in the urethral pressures compared with ST-1059” value was “equal to or more than that of ST-1059”. The “Kp,uu,CSF” value in series [1] (10 minutes after the intravenous administration) is reported as 1.74. In addition, the Kp uu at 10 min in series [1] (CSF and plasma (unbound), iv, 10 minutes after the intravenous administration) is more than 1. In addition, the “occupancy of the sleep step of electroencephalogram” value in the series on rat (0.1 mg/kg intraperitoneal, up to 6 hours) is “there is a tendency that the occupancy of the sleep step of electroencephalogram from a dose of 0.1 mg/kg increases”. In addition, in the series on rat (1 mg/kg intraperitoneal, up to 6 hours), the “occupancy of the respective sleep steps” value is “significantly increases”. For the same compound, the sleep action result in the series with rat (intraperitoneal 0.1, 1 and 10 mg/kg) is given as “there is a sleep action”. Further, in series [2], the “contraction of isolated urethra, increase of urethral pressure” value is “contract the isolated urethra in a rat to increase the urethral pressure of the rat”.

By EC50 is commonly meant the concentration needed to bring the measured effect to its halfway point. Lower therefore signals an effect from little substance. The term Emax denotes the maximal effect, on the per cent scale that the assay sets. Take `CCC(=O)NCCc1c(C)[nH]c2ccc(OCCOc3ccn(C)n3)cc12` [Example 1, N-[2-{2-methyl-5-(2-[(1-methyl-1H-pyrazol-3-yl)oxy]ethoxy}-1H-indol-3-yl)ethyl]propanamide]: the EC50 on human MT1 receptor (HEK293EBNA1 cells stably expressing human MT1 and Gq/i chimeric G protein, Ca2+ FLIPR) was found to be 3.9 nM; on human MT2 receptor (HEK293 cells stably expressing human MT2 and Gq/i chimeric G protein, Ca2+ FLIPR) it was 14 nM. Also, the Emax on human MT1 receptor (setting [3]) is 95%; on human MT2 receptor (setting [3]), 119%. In the series on SD female rats (dose of 0.01 mg/kg), the “urethral pressure increasing action” value is on record as “good urethral pressure increasing action”. For the same compound, the Kp uu at 0.25 h in series [1] (CSF and plasma (unbound), iv, 15 minutes after intravenous administration, fp by ultracentrifugation method) was 0.05. The “occupancy in the respective sleep steps of electroencephalogram” value with rat (setting [4]) is “no change in the occupancy in the respective sleep steps of electroencephalogram could be seen”. In addition, the sleep action entry in the series on rat (setting [4]) was “there was no sleep action”.
